How the values were obtained:
[1] = Solubility of sodium salts in water, ethanol and aqueous ethanol (FIG. 8); assay type: physicochemical; conditions: for solubility change of the sodium salt in aqueous ethanol (in words): aqueous ethanol versus water or ethanol; for solubility of the sodium salt in water and in ethanol (in words): both water and ethanol
Text: FIG. 8. Solubility of 11-aminoundecanoic acid and dodecanedioic acid in aqueous ethanol solution of 2 M sodium hydroxide at different concentration of ethanol.
For example, FIG. 8 illustrates the solubility change of sodium salts of 11-aminoundecanoic acid and dodecanedioic acid in aqueous ethanol. […] This surprising finding renders the separation of these two salts possible.

[2] = Solubility of alkali salts in sodium hydroxide solution (FIG. 6, FIG. 7); assay type: physicochemical; conditions: 2 M sodium hydroxide, about 50° C.
Description: FIG. 6. Solubility curve of 11-aminoundecanoic acid in water at neutral pH, 1 M solution of sulfuric acid, and 2 M solution of sodium hydroxide.
FIG. 7. Solubility curve of heptanoic acid in a 6 M solution of sodium hydroxide and dodecanedioic acid in a 3 M solution of sodium hydroxide.
When the hydrolysis reaction of mixed amide derivatives from the Beckmann rearrangement is performed in the presence of alkali hydroxide, main products other than alkylamine are obtained in the form of their alkali salts. It was observed that a starting suspension of the mixed amide derivatives in a solution of alkali hydroxide is changed to a clear solution at a temperature of 60° C. or above after the hydrolysis.
Since long chain amino acid, e.g., 11-aminoundecanoic acid, has relatively constant solubility, evaporative concentration of the mother liquor will result in the crystallization of inorganic salt, in particular, sodium sulfate, along with valuable long chain amino acid. […] This finding greatly facilitates the separation of inorganic salt, most preferably, sodium sulfate, and the recovery of long chain amino acids.
In an alkali hydroxide hydrolysis of the mixed amide derivatives, two mole equivalents of alkali hydroxide are required, but more than two equivalents, usually between 2.5 to 3 equivalents of alkali hydroxide are used to achieve a complete hydrolysis. […]

physchem = conditions: aqueous buffer
[3] = Phase separation of hexylamine-water azeotrope distillate upon cooling; assay type: physicochemical; conditions: aqueous phase after cooling and phase separation
Text: For the production of 11-aminoundecanoic acid and dodecanedioic acid, hexylamine is one of the main products. Hexylamine is found to form an azeotrope with water and can be separated from the solution by azeotropic distillation. Upon cooling, the distillate separates into an upper phase of nearly pure hexylamine and an aqueous phase containing not more than 2% of hexylamine. Hexylamine can also be separated from the mixture by steam distillation or steam stripping. Complete separation is accomplished when the distillate at the overhead becomes nearly neutral at a pH of 7-8.

NCCCCCCCCCCC(=O)O [11-aminoundecanoic acid]
solubility change of the sodium salt in aqueous ethanol (in words) [1]: drastically increases the solubility
solubility of the sodium salt in water and in ethanol (in words) [1]: nearly insoluble
solubility of the alkali salt in 2 M solution of sodium hydroxide (in words) [2]: freely soluble

O=C(O)CCCCCCCC(=O)O [azelaic acid]
solubility (physchem): > 600 mg/mL

O=C(O)CCCCCCCCCCC(=O)O [dodecanedioic acid]
solubility change of the sodium salt in aqueous ethanol (in words) [1]: remains unchanged
solubility of the sodium salt in water and in ethanol (in words) [1]: nearly insoluble

CCCCCCN [hexylamine]
hexylamine content of the aqueous phase of the cooled azeotropic distillate [3]: not more than 2%
